“And” between values parts separate entries of the source, which are not always exact repeats. Identical values can stand only once. Toxic doses and inconclusive results are not listed.
System: CD2F1 mice, L1210 leukemia ip, survival T/C
Test: NCI In Vivo Anticancer Drug Screen. Data for tumor model L1210 Leukemia (intraperitoneal) in CD2F1 (CDF1) mice
Conditions: higher = longer survival
In short: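 Mice carrying a transplanted tumor received test compound or vehicle alone. The value is the measurement in the treated group divided by that in the vehicle-treated control group.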

[1] = endpoint: mean survival time, dose: 100.0 mg/kg/injection, schedule: Q01DX009 (ip), vehicle: saline with Tween-80
[2] = endpoint: mean survival time, dose: 200.0 mg/kg/injection, schedule: Q01DX009 (ip), vehicle: saline with Tween-80
[3] = endpoint: mean survival time, dose: 400.0 mg/kg/injection, schedule: Q01DX009 (ip), vehicle: saline with Tween-80
[4] = endpoint: mean survival time, dose: 100.0 mg/kg/injection, schedule: Q01DX001 (ip), vehicle: saline with Tween-80
[5] = endpoint: mean survival time, dose: 200.0 mg/kg/injection, schedule: Q01DX001 (ip), vehicle: saline with Tween-80
[6] = endpoint: mean survival time, dose: 400.0 mg/kg/injection, schedule: Q01DX001 (ip), vehicle: saline with Tween-80
[7] = endpoint: mean survival time, dose: 100.0 mg/kg/injection, schedule: Q04DX003 (ip), vehicle: saline with Tween-80
[8] = endpoint: mean survival time, dose: 200.0 mg/kg/injection, schedule: Q04DX003 (ip), vehicle: saline with Tween-80
[9] = endpoint: mean survival time, dose: 400.0 mg/kg/injection, schedule: Q04DX003 (ip), vehicle: saline with Tween-80
[10] = endpoint: mean survival time, dose: 12.5 mg/kg/injection, schedule: Q01DX009 (ip), vehicle: Klucel (hydroxypropylcellulose) (HPC)
[11] = endpoint: mean survival time, dose: 25.0 mg/kg/injection, schedule: Q01DX009 (ip), vehicle: Klucel (hydroxypropylcellulose) (HPC)
[12] = endpoint: mean survival time, dose: 50.0 mg/kg/injection, schedule: Q01DX009 (ip), vehicle: Klucel (hydroxypropylcellulose) (HPC)

O/N=C(\c1ccccc1)C1C(/C(=N/O)c2ccccc2)C1c1ccccc1 (configuration not stated) (tested in a mixture with another compound)
T/C [1]: 95 % of control | T/C [2]: 95 % of control | T/C [3]: 90 % of control

NC(=O)COc1ccc(Cl)cc1Cl
T/C [4]: 98 % of control | T/C [1]: 94 % of control | T/C [5]: 94 % of control | T/C [2]: 96 % of control | T/C [6]: 94 % of control

O=C(O)CCCSc1nc2ccccc2s1
T/C [1]: 98 % of control | T/C [7]: 95 % of control | T/C [2]: 97 % of control | T/C [8]: 98 % of control | T/C [3]: 105 % of control | T/C [9]: 98 % of control

O=[n+]1c2ccccc2n([O-])c2ccccc21.[Cl][Ni][Cl]
T/C (endpoint: median survival time, dose: 1.56 mg/kg/injection, schedule: Q01DX009 (ip), vehicle: saline with Tween-80): 98 % of control | T/C (endpoint: median survival time, dose: 3.12 mg/kg/injection, schedule: Q01DX009 (ip), vehicle: saline with Tween-80): 92 % of control | T/C (endpoint: median survival time, dose: 6.25 mg/kg/injection, schedule: Q01DX009 (ip), vehicle: saline with Tween-80): 103 % of control | T/C (endpoint: median survival time, dose: 12.5 mg/kg/injection, schedule: Q01DX009 (ip), vehicle: saline with Tween-80): 109 % of control | T/C (endpoint: median survival time, dose: 25.0 mg/kg/injection, schedule: Q01DX009 (ip), vehicle: saline with Tween-80): 113 % of control

c1ccc2c(c1)CC1CCCCN1C2 (configuration not stated)
T/C [10]: 94 % of control | T/C (endpoint: mean survival time, dose: 12.5 mg/kg/injection, schedule: Q04DX003 (ip), vehicle: saline): 95 % of control | T/C [11]: 100 % of control | T/C (endpoint: mean survival time, dose: 25.0 mg/kg/injection, schedule: Q04DX003 (ip), vehicle: saline): 93 % of control | T/C [12]: 97 % of control | T/C (endpoint: mean survival time, dose: 50.0 mg/kg/injection, schedule: Q04DX003 (ip), vehicle: saline): 95 % of control

CC1C=CC(=O)O1 (configuration not stated)
T/C (endpoint: mean survival time, dose: 50.0 mg/kg/injection, schedule: Q04DX002 (ip), vehicle: saline with Tween-80): 100 % of control | T/C (endpoint: mean survival time, dose: 100.0 mg/kg/injection, schedule: Q04DX002 (ip), vehicle: saline with Tween-80): 103 % of control

CC1(C)NC(=O)N(Br)C1=O
T/C [1]: 88 % of control | T/C [7]: 103 % of control | T/C [2]: 89 % of control | T/C [8]: 96 % of control | T/C [9]: 103 % of control

COc1cc(C(=O)c2cc3c(cc2C)OCO3)cc(OC)c1OC
T/C (endpoint: mean survival time, dose: 6.25 mg/kg/injection, schedule: Q01DX009 (ip), vehicle: Klucel (hydroxypropylcellulose) (HPC)): 102 % of control and 105 % of control | T/C [10]: 100 % of control and 102 % of control | T/C [11]: 105 % of control and 107 % of control | T/C [12]: 113 % of control and 98 % of control | T/C (endpoint: mean survival time, dose: 100.0 mg/kg/injection, schedule: Q01DX009 (ip), vehicle: Klucel (hydroxypropylcellulose) (HPC)): 105 % of control | T/C (endpoint: mean survival time, dose: 200.0 mg/kg/injection, schedule: Q01DX009 (ip), vehicle: Klucel (hydroxypropylcellulose) (HPC)): 114 % of control

CCN(CC)CCNC(=O)C(O)C1CCCCC1 (configuration not stated)
T/C (endpoint: mean survival time, dose: 75.0 mg/kg/injection, schedule: Q01DX001 (ip), vehicle: other): 90 % of control

CC1Oc2ccccc2OC1C(=O)NN (configuration not stated)
T/C [1]: 92 % of control | T/C [2]: 94 % of control | T/C [3]: 94 % of control

NC(=N\O)/C(N)=N/O.[Cl][Pd][Cl]
T/C (endpoint: median survival time, dose: 3.12 mg/kg/injection, schedule: Q04DX003 (ip), vehicle: saline): 100 % of control | T/C (endpoint: median survival time, dose: 6.25 mg/kg/injection, schedule: Q04DX003 (ip), vehicle: saline): 100 % of control | T/C (endpoint: median survival time, dose: 12.5 mg/kg/injection, schedule: Q04DX003 (ip), vehicle: saline): 103 % of control | T/C (endpoint: median survival time, dose: 25.0 mg/kg/injection, schedule: Q04DX003 (ip), vehicle: saline): 100 % of control | T/C (endpoint: median survival time, dose: 50.0 mg/kg/injection, schedule: Q04DX003 (ip), vehicle: saline): 97 % of control | T/C (endpoint: median survival time, dose: 100.0 mg/kg/injection, schedule: Q04DX003 (ip), vehicle: saline): 98 % of control | T/C (endpoint: median survival time, dose: 200.0 mg/kg/injection, schedule: Q04DX003 (ip), vehicle: saline): 97 % of control

C[NH-].C[NH-].[Br][Pt][Br].[CH3-].[CH3-]
T/C (endpoint: mean survival time, dose: 1.56 mg/kg/injection, schedule: Q04DX003 (ip), vehicle: saline with Tween-80): 97 % of control | T/C (endpoint: mean survival time, dose: 3.13 mg/kg/injection, schedule: Q04DX003 (ip), vehicle: saline with Tween-80): 97 % of control | T/C (endpoint: mean survival time, dose: 6.25 mg/kg/injection, schedule: Q04DX003 (ip), vehicle: saline with Tween-80): 104 % of control | T/C (endpoint: mean survival time, dose: 12.5 mg/kg/injection, schedule: Q04DX003 (ip), vehicle: saline with Tween-80): 93 % of control | T/C (endpoint: mean survival time, dose: 25.0 mg/kg/injection, schedule: Q04DX003 (ip), vehicle: saline with Tween-80): 89 % of control and 93 % of control | T/C (endpoint: mean survival time, dose: 50.0 mg/kg/injection, schedule: Q04DX003 (ip), vehicle: saline with Tween-80): 102 % of control | T/C [7]: 100 % of control | T/C [8]: 98 % of control | T/C [9]: 94 % of control

Nc1ccc(C(OC(=O)c2cc3ccccc3c(Cc3c(O)c(C(=O)OC(c4ccc(N)cc4)(c4ccc(N)cc4)c4ccc(N)cc4)cc4ccccc34)c2O)(c2ccc(N)cc2)c2ccc(N)cc2)cc1
T/C (endpoint: mean survival time, dose: 0.78 mg/kg/injection, schedule: Q01DX009 (ip), vehicle: saline with Tween-80): 100 % of control and 111 % of control | T/C (endpoint: mean survival time, dose: 1.56 mg/kg/injection, schedule: Q01DX009 (ip), vehicle: saline with Tween-80): 123 % of control and 102 % of control | T/C (endpoint: mean survival time, dose: 3.12 mg/kg/injection, schedule: Q01DX009 (ip), vehicle: saline with Tween-80): 105 % of control | T/C (endpoint: mean survival time, dose: 3.13 mg/kg/injection, schedule: Q01DX009 (ip), vehicle: saline with Tween-80): 101 % of control | T/C (endpoint: mean survival time, dose: 6.25 mg/kg/injection, schedule: Q01DX009 (ip), vehicle: saline with Tween-80): 104 % of control and 107 % of control | T/C (endpoint: mean survival time, dose: 12.5 mg/kg/injection, schedule: Q01DX009 (ip), vehicle: saline with Tween-80): 88 % of control and 110 % of control | T/C (endpoint: mean survival time, dose: 25.0 mg/kg/injection, schedule: Q01DX009 (ip), vehicle: saline with Tween-80): 101 % of control

CN(C)S(=O)(=O)Oc1ccc(N)cc1
T/C [7]: 103 % of control | T/C [8]: 101 % of control | T/C [9]: 104 % of control

CCCCCCCCCC(O)CCCCCCCCC
T/C (endpoint: mean survival time, dose: 100.0 mg/kg/injection, schedule: Q01DX009 (ip), vehicle: other): 102 % of control | T/C (endpoint: mean survival time, dose: 100.0 mg/kg/injection, schedule: Q04DX003 (ip), vehicle: other): 103 % of control | T/C (endpoint: mean survival time, dose: 200.0 mg/kg/injection, schedule: Q01DX009 (ip), vehicle: other): 91 % of control | T/C (endpoint: mean survival time, dose: 200.0 mg/kg/injection, schedule: Q04DX003 (ip), vehicle: other): 94 % of control | T/C (endpoint: mean survival time, dose: 400.0 mg/kg/injection, schedule: Q01DX009 (ip), vehicle: other): 91 % of control | T/C (endpoint: mean survival time, dose: 400.0 mg/kg/injection, schedule: Q04DX003 (ip), vehicle: other): 94 % of control

CC(=O)OC1COC(NC(=O)N(CCCl)N=O)C(OC(C)=O)C1OC(C)=O (configuration not stated)
T/C (endpoint: median survival time, dose: 0.75 mg/kg/injection, schedule: Q01DX009 (ip), vehicle: saline with Tween-80): 115 % of control and 122 % of control and 111 % of control | T/C (endpoint: median survival time, dose: 3.0 mg/kg/injection, schedule: Q01DX009 (ip), vehicle: saline with Tween-80): 150 % of control and 166 % of control | T/C (endpoint: median survival time, dose: 6.0 mg/kg/injection, schedule: Q01DX009 (ip), vehicle: saline with Tween-80): 168 % of control and 191 % of control and 205 % of control | T/C (endpoint: median survival time, dose: 12.0 mg/kg/injection, schedule: Q01DX009 (ip), vehicle: saline with Tween-80): 315 % of control and 322 % of control and 674 % of control

CCCCCCCCC(C(O)c1ccccc1)C(O)(C(F)(F)F)C(F)(F)F (configuration not stated)
T/C [7]: 98 % of control | T/C [8]: 102 % of control | T/C [9]: 104 % of control

Clc1cc2n[nH]nc2c(Cl)n1
T/C (endpoint: mean survival time, dose: 25.0 mg/kg/injection, schedule: Q01DX009 (ip), vehicle: water): 90 % of control | T/C (endpoint: mean survival time, dose: 50.0 mg/kg/injection, schedule: Q01DX009 (ip), vehicle: water): 90 % of control | T/C (endpoint: mean survival time, dose: 100.0 mg/kg/injection, schedule: Q01DX009 (ip), vehicle: water): 90 % of control

COC1OC(CO)C(OC(=O)Nc2ccccc2)C(OC(=O)Nc2ccccc2)C1O (configuration not stated)
T/C [4]: 87 % of control | T/C [6]: 95 % of control

CCCCN(CCCC)P1(=O)OCCO1
T/C (endpoint: mean survival time, dose: 100.0 mg/kg/injection, schedule: Q04DX002 (ip), vehicle: saline): 103 % of control | T/C (endpoint: mean survival time, dose: 200.0 mg/kg/injection, schedule: Q04DX002 (ip), vehicle: saline): 107 % of control | T/C (endpoint: mean survival time, dose: 400.0 mg/kg/injection, schedule: Q04DX002 (ip), vehicle: saline): 98 % of control

Nc1nc(N)c(-c2cccc(Cl)c2)c(COc2ccc([N+](=O)[O-])cc2)n1
T/C [4]: 94 % of control | T/C [5]: 92 % of control | T/C [6]: 93 % of control
